# According to patent US11389407B2, “Cochleates and methods of using the same to enhance tissue penetration of pharmacologically active agent” (priority 2015, dated 2022):
# Tested on: Candida albicans
# Test: Minimum inhibitory concentration (MIC)
# Type: cell-based
smiles,measurement,value
"C[C@@H]1[C@H](O)[C@@H](C)/C=C/C=C/C=C/C=C/C=C/C=C/C=C/[C@H](O[C@@H]2O[C@H](C)[C@@H](O)[C@H](N)[C@@H]2O)C[C@@H]2O[C@](O)(C[C@@H](O)C[C@@H](O)[C@H](O)CC[C@@H](O)C[C@@H](O)CC(=O)O[C@H]1C)C[C@H](O)[C@H]2C(=O)O [AmB, amphotericin B]",minimum inhibitory concentration (MIC),0.25 µg/mL
